# Source: patent US4866083A, “2-t-butyl-3 alkyl-5-(m-hydroxyphenyl)-1,3-oxazolidines having mydriatic effect” (University of Iowa Research Foundation, priority 1987, dated 1989)
# Columns and labels:
# [1] = Hydrolysis in buffered aqueous solution at 35° C.; assay type: physicochemical; conditions: pH's between 1-7.5
# Method: A series of experiments were conducted at 35° C. to determine the apparent first order hydrolysis rate constant for phenylephrine oxazolidine at […]. The progress of hydrolysis of the prodrug was followed by measuring the production of pivaldehyde subsequently trapped with thiosemicarbazide (pH<4) or semicarbazide (pH 4-7.5). The resulting formation of the carbazone derivative was followed using Uv spectroscopy at 235 and 265 nm (the spectroscopy was a 8450A UV/VIS Hewlett-Packard, Chicago, Ill.). The prodrug was dissolved in either pH 1, 2, 3, 4, 5, 6, 7 or 7.5 buffered aqueous solutions. The buffers used were hydrochloric acid, formate, acetate and phosphate solutions. The carbonyl trapping reagent was included in the buffer solutions at a concentration of 3.1×10(-3) M. The initial concentration of oxazolidine prodrug was about 1.8×10(-4) M. A volume of 3 ml was used for the reaction which was monitored directly in the absorbance cell. […] The concentration of carbazone was calculated by referring to a standard curve.
# rabbit eye = assay: Mydriatic experiments, pupil diameter in the rabbit eye; assay type: in vivo, New Zealand Rabbit
# Method: The right eye of a normal adult New Zealand Rabbit (3-4 months) was used to measure mydriasis. A flood of diffuse light was placed at a fixed distance from the rabbit eye so that the initial pupil diameter prior to administering eye drops was about 3 mm. Changes in pupil diameter were measured from photographs taken with a 35 mm single lens reflex camera equipped with a close-up lens. Pupil diameters were measured at time 0 through about 5 hours. A dosing volume of 10 μl was administered to the right eye of a group of eight rabbits. A period of at least three days was allowed between instillations of each formulation.
# [2] = Stability in aqueous solutions; assay type: physicochemical
# [3] = Distribution coefficient (log DC); assay type: physicochemical; conditions: read-out: log DC (Dist. Coeff.)
# [4] = topical ocular; some individuals; cited from earlier work
half-life [1] [min],logD [3],SMILES,"potency relative to the aqueous solution of phenylephrine HCl (rabbit eye; based upon pupillary diameter, versus 10% viscous preparation of phenylephrine HCl, FIG. 2)","mydriasis compared with phenylephrine HCl (rabbit eye; molar equivalent concentration to 10% oil suspension of phenylephrine HCl, 10 μl to right eye, FIG. 1)",stability in aqueous solutions [2],side effects [4]
5 to 12,1.383 ± 0.013,"CN1C[C@@H](c2cccc(O)c2)OC1C(C)(C)C (single isomer, unassigned) [phenylephrine oxazolidine, 2-t-butyl-3-methyl-5-(m-hydroxyphenyl)-1,3-oxazolidine]",approximately 10 times,significantly greater mydriasis,not particularly stable in aqueous solutions,
,,"CNC[C@H](O)c1cccc(O)c1 [phenylephrine, 3-hydroxy-α-[(methylamino)methyl]-benzyl alcohol]",,,,"hypertension, syncope, and even in some cases to myocardial infarction, leading to death"
